Source: patent US20260232682A1, “GSPT1 DEGRADER COMPOUNDS” (Captor Therapeutics S.A., priority 2023, published 2026)

Experiments:
[1] = biological target: CRBN/DDB1 protein complex (Homo sapiens, UniProt Q96SW2); experiment: CRBN displacement TR-FRET assay; conditions: Thalidomide-Red tracer, 6×His-CRBN/DDB1; read-out: CRBN binding Ki
In short: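 Test compound at various concentrations competed with 6.8 nM Thalidomide-Red tracer for 5 nM 6×His-CRBN/DDB1, detected with 0.5 nM anti-His-Eu cryptate in buffer with 1 mM DTT and 1% DMSO. Incubation ran 180 min at room temperature with a time-resolved fluorescence read-out. IC50 values were converted to Ki by Cheng–Prusoff using tracer Kd and protein and tracer concentrations.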

[2] = biological target: T1, [SALL4 ZF2]-[compound]-[CRBN/DDB1] ternary complex (Homo sapiens, UniProt Q96SW2+Q9UJQ4); experiment: AlphaLISA assay for off-target recruitment detection, SALL4 ZF2; assay type: binding; conditions: 1 μM compound; normalized to Lenalidomide; read-out: Normalized ternary complex response, SALL4 ZF2
T1 construct: SALL4 ZF2
T1 sequence (Q9UJQ4 410-432 limits assumed): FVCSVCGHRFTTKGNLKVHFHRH
T1 sequence (Q96SW2 whole entry): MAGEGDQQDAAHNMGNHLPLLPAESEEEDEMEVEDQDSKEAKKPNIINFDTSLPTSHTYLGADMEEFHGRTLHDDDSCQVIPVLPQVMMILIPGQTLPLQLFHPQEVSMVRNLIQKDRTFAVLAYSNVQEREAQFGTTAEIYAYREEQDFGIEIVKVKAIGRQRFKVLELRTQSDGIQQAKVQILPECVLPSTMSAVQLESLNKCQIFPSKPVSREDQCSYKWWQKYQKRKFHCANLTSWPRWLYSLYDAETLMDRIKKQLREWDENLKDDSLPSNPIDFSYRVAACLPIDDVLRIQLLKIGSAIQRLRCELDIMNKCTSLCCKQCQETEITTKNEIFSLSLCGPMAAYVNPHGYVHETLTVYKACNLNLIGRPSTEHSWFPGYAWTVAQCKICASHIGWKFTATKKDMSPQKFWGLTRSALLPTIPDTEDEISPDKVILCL
T1 sequence (Q16531 whole entry partner): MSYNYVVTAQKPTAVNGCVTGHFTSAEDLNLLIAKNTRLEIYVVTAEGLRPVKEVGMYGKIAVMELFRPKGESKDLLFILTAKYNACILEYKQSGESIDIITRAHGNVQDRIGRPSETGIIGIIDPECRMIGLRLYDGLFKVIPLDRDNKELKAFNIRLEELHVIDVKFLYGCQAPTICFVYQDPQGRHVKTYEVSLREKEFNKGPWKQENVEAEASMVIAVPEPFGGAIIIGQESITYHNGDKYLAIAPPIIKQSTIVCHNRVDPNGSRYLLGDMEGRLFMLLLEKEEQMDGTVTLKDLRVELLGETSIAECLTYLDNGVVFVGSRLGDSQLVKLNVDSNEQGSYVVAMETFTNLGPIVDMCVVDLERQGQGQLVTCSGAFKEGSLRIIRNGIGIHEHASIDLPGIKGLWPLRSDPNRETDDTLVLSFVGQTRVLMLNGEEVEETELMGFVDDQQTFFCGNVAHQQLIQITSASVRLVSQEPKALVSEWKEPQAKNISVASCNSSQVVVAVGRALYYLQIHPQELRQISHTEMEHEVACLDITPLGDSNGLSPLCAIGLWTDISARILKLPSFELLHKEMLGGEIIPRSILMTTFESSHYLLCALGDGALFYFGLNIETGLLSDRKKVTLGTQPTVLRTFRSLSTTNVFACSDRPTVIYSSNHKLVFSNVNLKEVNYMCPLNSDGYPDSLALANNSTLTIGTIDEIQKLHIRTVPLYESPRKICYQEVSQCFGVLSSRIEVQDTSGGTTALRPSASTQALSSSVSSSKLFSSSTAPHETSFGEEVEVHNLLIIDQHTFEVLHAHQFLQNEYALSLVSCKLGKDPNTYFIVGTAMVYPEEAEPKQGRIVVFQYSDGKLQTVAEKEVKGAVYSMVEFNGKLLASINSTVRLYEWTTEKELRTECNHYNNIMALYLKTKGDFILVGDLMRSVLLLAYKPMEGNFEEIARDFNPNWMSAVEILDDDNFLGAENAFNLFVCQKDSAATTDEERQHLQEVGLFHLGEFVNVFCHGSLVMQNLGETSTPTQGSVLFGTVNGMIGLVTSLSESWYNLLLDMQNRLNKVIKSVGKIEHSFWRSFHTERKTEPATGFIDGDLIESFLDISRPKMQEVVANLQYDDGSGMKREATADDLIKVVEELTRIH
In short: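 Neo-substrate with 40 μg/ml donor beads and 200 nM 6×His-CRBN/DDB1 with 40 μg/ml anti-His acceptor beads were each prepared in PBS pH 7.4 with Tween-20 and 1 mM DTT, preincubated 30 min at RT, then mixed. Compounds at 2% DMSO were incubated 30 min at 25 °C, read at 680/615 nm, and normalised between DMSO background and reference glue maximum.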

[3] = biological target: T2, GSPT1-HiBiT protein in GSPT1-HiBiT HEK293 cells (Homo sapiens, UniProt P15170+Q96SW2); experiment: GSPT1 degradation assay using HiBiT system (Nano-Glo HiBiT lytic assay); assay type: cell-based; conditions: 6 hours treatment; for DC50: read-out: HiBiT lytic assay Geomean absolute DC50
T2 construct: endogenous in cells; host or cells: HEK293 (CRISPR/Cas9 knock-in of HiBiT at the GSPT1 locus)
T2 sequence (P15170 whole entry): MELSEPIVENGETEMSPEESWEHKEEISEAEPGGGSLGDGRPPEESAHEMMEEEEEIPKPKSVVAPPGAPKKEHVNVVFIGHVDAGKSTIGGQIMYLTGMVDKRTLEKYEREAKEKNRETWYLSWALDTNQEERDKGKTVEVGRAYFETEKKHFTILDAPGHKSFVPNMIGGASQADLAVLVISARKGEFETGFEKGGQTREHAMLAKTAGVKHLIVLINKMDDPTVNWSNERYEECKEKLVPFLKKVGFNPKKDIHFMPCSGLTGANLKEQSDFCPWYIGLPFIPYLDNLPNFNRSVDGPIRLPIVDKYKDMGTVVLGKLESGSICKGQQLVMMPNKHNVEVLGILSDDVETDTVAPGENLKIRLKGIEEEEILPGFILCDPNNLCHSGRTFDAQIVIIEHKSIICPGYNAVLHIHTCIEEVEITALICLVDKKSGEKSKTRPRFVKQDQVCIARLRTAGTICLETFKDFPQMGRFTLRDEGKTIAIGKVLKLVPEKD
T2 sequence (Q96SW2 whole entry): as the sequence (Q96SW2 whole entry) above
T2 sequence (Q16531 whole entry partner): as the sequence (Q16531 whole entry partner) above
Excerpt: The effect of selected compounds of the invention on GSPT1 protein levels was investigated, using the GSPT1-HiBiT HEK293 cell line and the Nano-Glo HiBiT degradation assay protocol below.
GSPT1-HiBiT HEK293 cells were generated in-house using the HEK293 parental cells (ATCC, cat. no 70016364) and the CRISPR/Cas9 system. HEK293 cells were transformed with pSpCas9-BB-2A-Puro v2.0 plasmid carrying gRNA targeting the C-terminus of GSPT1 and ssODN template containing the HiBiT tag sequence with flanking homology sequences. Neon Transfection System (Thermo Fisher Scientific) was used for electroporation. HEK293 GSPT1-HiBiT cells were cultured with DMEM Glutamax (Gibco) supplemented with 10% heat inactivated FBS (Gibco). After transfection the culture medium was changed to DMEM Glutamax with 10% heat-inactivated FBS and 1% Penicillin-Streptomycin (Biowest) supplemented with Puromycin (2 μg/ml; Invivogen) for clonal selection. In order to isolate single cell clones for further validation and analysis, limiting dilution cloning in 96-well plates was performed. When the single clones reached confluency, HiBiT Lytic Assay (Promega) was performed in order to identify HiBiT positive clones. The clone selected for further studies was verified and validated using genotyping and HiBiT Blotting (Promega).
Cells were maintained in DMEM Glutamax medium, supplemented with 1% penicillin/streptomycin and 10% Fetal Bovine Serum (FBS) at 37° C., 5% CO2. Compounds were stored frozen as 20 mM DMSO stocks.
For the Nano-Glo HiBiT assay, cells were seeded onto 384-well white solid bottom plate at 2×10^3 cells/well in 40 μL using the Agilent BioTek MultiFlo FX Multimode Dispenser and incubated overnight. Following overnight incubation (37° C., 5% CO2) cells were treated with the test compounds and vehicle only (DMSO) control using the Echo 555 Liquid Handler. Twelve data-point compound titration curve with concentrations ranging from 10 μM to 0.03 nM was used. Final DMSO concentration was kept constant at 0.25% v/v across the assay plate. After 6 hours of incubation (37° C., 5% CO2), plates were removed from the incubator and let to equilibrate to RT. Luminescent signal detection was conducted using the Nano-Glo HiBiT Lytic Detection System (Promega, cat. nr N3050). Nano-Glo HiBiT Lytic Reagent was prepared freshly by diluting the LgBiT Protein (1:100 vol/vol) and the Nano-Glo HiBiT Lytic Substrate (1:50 vol/vol) in the relevant volume of the Nano-Glo HiBiT Lytic Buffer. 40 μL of the HiBiT Lytic Reagent was added per well, plates were shaken to facilitate lysis (350 rpm, 5 min, RT) and incubated in the dark for the following 10 min. Luminescence was read using the PHERAstar multimode plate reader (BMG LABTECH). The raw data (the relative luminescence unit values, RLU) were uploaded under the relevant protocol and analysed in CDDVault data management platform. Luminescence (RLU) values were normalized to the controls, and reported absolute DC50 values and Dmax values were calculated in CDDVault using non-linear regression and appropriate equations.

Chain of CRBN/DDB1 protein complex (Q96SW2 whole entry, species assumed): as the sequence (Q96SW2 whole entry) above
Chain of CRBN/DDB1 protein complex (Q16531 whole entry partner, species assumed): as the sequence (Q16531 whole entry partner) above

| SMILES | Ki [1] [nM] | activation at 1 µM [2] [%] | Dmax [3] [%] | DC50 [3] [nM] |
| --- | --- | --- | --- | --- |
| Cc1nc2cc(COC(=O)Nc3cc(C(F)(F)F)n[nH]3)ccc2cc1C1CCC(=O)NC1=O (centres unmarked) [Compound 69, (3-(2,6-dioxopiperidin-3-yl)-2-methylquinolin-7-yl)methyl (3-(trifluoromethyl)-1H-pyrazol-5-yl)carbamate] | > 1000 | < 10 | ≥ 75 | 10 to 50 |
| Cc1nc2cc(COC(=O)Nc3cc(C(C)(C)C)on3)ccc2cc1C1CCC(=O)NC1=O (centres unmarked) [Compound 70, (3-(2,6-dioxopiperidin-3-yl)-2-methylquinolin-7-yl)methyl (5-(tert-butyl)isoxazol-3-yl)carbamate] | < 500 | < 10 | ≥ 75 | < 10 |
| Cc1nc2cc(COC(=O)Nc3cc(C(F)(F)F)no3)ccc2cc1C1CCC(=O)NC1=O (centres unmarked) [Compound 71, (3-(2,6-dioxopiperidin-3-yl)-2-methylquinolin-7-yl)methyl (3-(trifluoromethyl)isoxazol-5-yl)carbamate] | > 1000 | < 10 | ≥ 75 | 50 to 100 |
| Cc1nc2cc(COC(=O)Nc3cc(C(C)(C)C)no3)ccc2cc1N1CCC(=O)NC1=O [Compound 72, (3-(2,4-dioxotetrahydropyrimidin-1(2H)-yl)-2-methylquinolin-7-yl)methyl (3-(tert-butyl)isoxazol-5-yl)carbamate] | 500 to 1000 | < 10 | ≥ 75 | 10 to 50 |
| Cc1ccc(NC(=O)OCc2ccc3cc(C4(F)CCC(=O)NC4=O)c(C)nc3c2)cc1Cl (centres unmarked) [Compound 74, (3-(3-fluoro-2,6-dioxopiperidin-3-yl)-2-methylquinolin-7-yl)methyl (3-chloro-4-methylphenyl)carbamate] | > 1000 | < 10 | ≥ 75 | > 100 |
| Cc1nc2cc(COC(=O)Nc3cc(C(C)(C)C)n[nH]3)ccc2cc1C1CCC(=O)NC1=O (centres unmarked) [Compound 75, (3-(2,6-dioxopiperidin-3-yl)-2-methylquinolin-7-yl)methyl (3-(tert-butyl)-1H-pyrazol-5-yl)carbamate] | > 1000 | < 10 | ≥ 75 | 10 to 50 |
| Cc1nc2cc(COC(=O)Nc3nc(C(C)(C)C)no3)ccc2cc1C1CCC(=O)NC1=O (centres unmarked) [Compound 80, (3-(2,6-dioxopiperidin-3-yl)-2-methylquinolin-7-yl)methyl (3-(tert-butyl)-1,2,4-oxadiazol-5-yl)carbamate] | 500 to 1000 | < 10 | ≥ 75 | 10 to 50 |

Second part, the molecule after the results:

| Ki [1] [nM] | activation at 1 µM [2] [%] | Dmax [3] [%] | DC50 [3] [nM] | SMILES |
| --- | --- | --- | --- | --- |
| 500 to 1000 | < 10 | ≥ 75 | < 10 | Cc1ncc(NC(=O)OCc2ccc3cc(C4CCC(=O)NC4=O)c(C)nc3c2)cc1Cl (centres unmarked) [Compound 58, (3-(2,6-dioxopiperidin-3-yl)-2-methylquinolin-7-yl)methyl (5-chloro-6-methylpyridin-3-yl)carbamate] |
| < 500 | < 10 | ≥ 75 | 10 to 50 | COc1cnc(NC(=O)OCc2ccc3cc(C4CCC(=O)NC4=O)c(C)nc3c2)cn1 (centres unmarked) [Compound 59, (3-(2,6-dioxopiperidin-3-yl)-2-methylquinolin-7-yl)methyl (5-methoxypyrazin-2-yl)carbamate] |
| < 500 | < 10 | ≥ 75 | > 100 | Cc1nc2cc(CNC(=O)Nc3cc(C(C)(C)C)no3)ccc2cc1N1CCC(=O)NC1=O [Compound 64, 1-(3-(tert-butyl)isoxazol-5-yl)-3-((3-(2,4-dioxotetrahydropyrimidin-1(2H)-yl)-2-methylquinolin-7-yl)methyl)urea] |
| < 500 | 25 to 50 | ≥ 75 | 10 to 50 | Cc1nc2ccc(COC(=O)Nc3cc(C(C)(C)C)no3)cc2cc1N1CCC(=O)NC1=O [Compound 66, (3-(2,4-dioxotetrahydropyrimidin-1(2H)-yl)-2-methylquinolin-6-yl)methyl (3-(tert-butyl)isoxazol-5-yl)carbamate] |
| < 500 | 25 to 50 | ≥ 75 | 10 to 50 | Cc1nc2ccc(CNC(=O)Nc3cc(C(C)(C)C)no3)cc2cc1N1CCC(=O)NC1=O [Compound 67, 1-(3-(tert-butyl)isoxazol-5-yl)-3-((3-(2,4-dioxotetrahydropyrimidin-1(2H)-yl)-2-methylquinolin-6-yl)methyl)urea] |
| < 500 | < 10 | ≥ 75 | < 10 | Cc1nc2cc(COC(=O)Nc3cc(C4(C(F)(F)F)CC4)no3)ccc2cc1C1CCC(=O)NC1=O (centres unmarked) [Compound 81, (3-(2,6-dioxopiperidin-3-yl)-2-methylquinolin-7-yl)methyl (3-(1-(trifluoromethyl)cyclopropyl)isoxazol-5-yl)carbamate] |
| < 500 | < 10 | ≥ 75 | < 10 | [2H]C([2H])(OC(=O)Nc1cc(C(C)(C)C)no1)c1ccc2cc(C3CCC(=O)NC3=O)c(C)nc2c1 (centres unmarked) [Compound 82, (3-(2,6-dioxopiperidin-3-yl)-2-methylquinolin-7-yl)methyl-d2 (3-(tert-butyl)isoxazol-5-yl)carbamate] |
